Data published in patent US20260053827A1, “Cannabidiol Solid Dosage Forms” (priority 2024, published 2026).

Details: saturation solubility of CBD in the liquid lipid given as label; supernatant assayed
Description: Each liquid lipophilic material was heated at 40° C. for 30 minutes in an oven before being combined with the CBD. 10 g of CBD was combined with 5 g of lipophilic material to create a saturated mixture. […] After agitation the solutions were centrifuged at 14800 rpm for 90 minutes to separate out any remaining undissolved CBD crystals. The resulting supernatant was sampled and assayed for CBD content to confirm the saturation solubility of the lipid.

CCOCCOCCO [Transcutol]
CBD: 653.2 mg/g
